Test results as given in article PMC11764660, “Self-Assembled Peptide Hydrogels PPI45 and PPI47: Novel Drug Candidates for Staphylococcus aureus Infection Treatment” (Gels, 2025).

Legend:
Type in all cases: cell-based, Staphylococcus aureus
S. aureus ATCC43300 [1] = test: SEM observation of bacterial morphology; settings: 2×MIC, 2 h, 37 °C, 10^8 CFU/mL
Description: This mixture was incubated at 37 °C for 2 h. The 0.01 M PBS (pH 7.4) served as the blank control. After being centrifugated at 4000 rpm for 5 min, the samples were carefully washed three times with 0.01 M PBS. Next, 1 mL of 2.5% glutaraldehyde was added to each sample and stored at 4 °C overnight. The samples were washed twice with distilled water and subsequently dehydrated through a series of ethanol solutions (50%, 70%, 85%, 95%, and 100%). Each sample received three treatments with 100% ethanol, followed by drying at the CO2 critical point, gold sputtering, and observation under a scanning electron microscope.

S. aureus ATCC 43300 [2] = test: Time-dependent bactericidal kinetic curve (time-kill); settings: 2× MIC, S. aureus ATCC 43300, start 1×10^5 CFU/mL, 37 °C, 250 rpm
Description: The mixture was subsequently incubated in a shaker at 37 °C and 250 rpm. At predetermined intervals (0, 0.5, 1, 2, 4, 6, 10, 22, and 24 h), 100 μL aliquots were withdrawn and subjected to serial 10-fold dilutions before being plated for colony counting.

S. aureus ATCC43300 [3] = test: Cell membrane integrity analysis (PI, flow cytometry); settings: 2×MIC, 37 °C, 10^8 CFU/mL
Description: The solution was incubated at 37 °C for 0.5, 1, 1.5, and 2 h, respectively, and 0.01 M PBS (pH 7.4) was used as a blank control. After the incubation periods, each sample was centrifugated at 4000 rpm for 5 min. Subsequently, 400 µL of the supernatant was removed, and 400 µL of sterile PBS was added. The samples were washed twice and then resuspended with PBS to a final volume of 450 µL. A 50 µL volume of PI staining solution (500 µg/mL) was added, and the samples were incubated for 15 min in the dark. Finally, the cells fixed with PI were analyzed using flow cytometry.

S. aureus ATCC 43300 [4] = test: PAE assay; settings: 2×MIC, 2 h exposure of 10^8 CFU/mL at 37 °C, 1000-fold dilution; time for tenfold increase of the colony count
Description: The mixture was subsequently incubated for 2 h at 37 °C and 250 rpm. Upon completion of the incubation period, 50 µL of the solution was withdrawn and diluted 1000-fold by adding […] of pre-warmed MHB, which was designated as the 0 h time point. Subsequently, samples were collected at 0, 0.5, 1, 2, 4, 6, 8, 10, 12, and 24 h. Each sample was subjected to 10-fold serial dilutions before being plated, and colony counts were performed. PBS served as the negative control. The time required for the colony count in each treatment group to increase tenfold relative to the post-reconstruction baseline was determined as PAE.

S. aureus ATCC 43300 [5] = test: Membrane potential (DiSC3(5)); settings: DiSC3(5) fluorescence, 1×, 2×, 4× MIC, 30 min, 37 °C, three replicates
Description: The fluorescent probe DiSC3(5) (0.5 mM) was co-incubated with PBS (10^8 CFU/mL) of S. aureus for 30 min at 37 °C. A total of 180 µL of bacteria carrying fluorescent probes and 20 µL of peptide solution at varying concentrations were added to 96-well plates and incubated for 30 min at 37 °C. The sample treated with PBS served as the negative control, and each concentration was set as three replicates. The alterations in fluorescence (excitation wavelength: 620 nm, emission wavelength: 670 nm) were monitored in real time over a period of 30 min using a multifunctional enzyme-labeling instrument.

| Compound | morphological changes of the bacteria by SEM (S. aureus ATCC43300 [1]) | bacterial count at 6 h (S. aureus ATCC 43300 [2]) [log10 CFU/mL] | bacterial count at 24 h (S. aureus ATCC 43300 [2]) [log10 CFU/mL] | membrane penetration rate (PI-positive bacteria) (S. aureus ATCC43300 [3]; 1 h) [%] | membrane penetration rate (PI-positive bacteria) (S. aureus ATCC43300 [3]; 1.5 h) [%] | membrane penetration rate (PI-positive bacteria) (S. aureus ATCC43300 [3]; 2 h) [%] | post-antibiotic effect (PAE) (S. aureus ATCC 43300 [4]) [h] | effect on membrane potential (S. aureus ATCC 43300 [5]) |
| --- | --- | --- | --- | --- | --- | --- | --- | --- |
| CC1COc2c(N3CCN(C)CC3)c(F)cc3c(=O)c(C(=O)O)cn1c23 (centres unmarked) [ofloxacin, Ofloxacin] | crumpled appearance with leakage of intracellular contents | 2 | 4.15 | 0.26 | 0.7 | 1.13 | 0.77 | – |
| nisin | – | – | – | – | – | – | – | depolarization |
